Consider 19 compounds from ChEMBL document CHEMBL1129131, “Identification and structure-activity relationship studies of osthol, a cytotoxic principle from Cnidium monnieri” (Bioorg Med Chem Lett, 1996).

Each structure is given as a SMILES string. In brackets after ≈: the same amount, converted by molar mass. Some results are limits rather than exact numbers.

The first experiment has as its system KB. As to the kind of experiment: Compound was tested for its cytotoxicity against KB cells. In kind it is functional, cell-based. The note with it: Homo sapiens.
`COc1ccc2ccc(=O)oc2c1CC=C(C)C` [OSTHOLE]: the IC50 came to 12 µg/mL (≈ 49.1 µM).

The next experiment relates to P388. Put plainly: Compound was tested for its cytotoxicity against P-388 cells. The format is functional, cell-based. The note with it: Mus musculus.
Regarding `COc1ccc2ccc(=O)oc2c1CC=C(C)C` [OSTHOLE], half-maximal inhibition (IC50) required 3.1 µg/mL (≈ 12.7 µM).

The next experiment relates to V79. Put plainly: Cytotoxicity against V-79 cells. To be noted: Cricetulus griseus. The format is functional, cell-based.
As to `COc1ccc2ccc(=O)oc2c1` [HERNIARIN], the half-inhibitory concentration (IC50) is over 100 µM. `CCCCCCCOc1ccc2ccc(=O)oc2c1CCC(C)C`: half-maximal inhibition (IC50) was put at 17 µM. Compound `COc1ccc2ccc(=O)oc2c1CCC(C)C` displayed a 50% inhibitory concentration (IC50) of 58 µM. Compound `CCOc1ccc2ccc(=O)oc2c1CCC(C)C` yielded an IC50 of 5.8 µM. On the same count and under the same terms, the value for `CCCOc1ccc2ccc(=O)oc2c1CCC(C)C` was 5.6 µM; that for `CC(C)CCc1c(O)ccc2c1OC(=O)CC2` was over 100 µM. In turn, `CC(=O)c1ccc2ccc(=O)oc2c1CCC(C)C` gave an IC50 of 60 µM. For `COc1ccc2ccc(=O)oc2c1CC=C(C)C` [OSTHOLE], inhibition was half-maximal at 57 µM (IC50). The compound `O=c1ccc2ccc(O)cc2o1` [UMBELLIFERONE] displayed an IC50 of 58 µM.

Compound `COc1ccc2c(c1CCC(C)C)OC(=O)CC2` had an IC50 of over 100 µM. With `CCCC(=O)c1ccc2ccc(=O)oc2c1CCC(C)C`, inhibition was half-maximal at 58 µM (IC50). For the compound `CCCCOc1ccc2ccc(=O)oc2c1CCC(C)C`, half-maximal inhibition (IC50) was put at 16 µM. As for `O=c1ccc2ccccc2o1` [COUMARIN], the IC50 was over 100 µM.

Compound `COc1ccc2ccc(=O)oc2c1CC(Br)C(C)(C)Br` (configuration not stated) came in with a half-inhibitory concentration (IC50) of 60 µM.

In the case of `COc1ccc2ccc(=O)oc2c1CC1OC1(C)C` (configuration not stated), the concentration for half-maximal inhibition (IC50) was over 100 µM.

`COc1ccc2ccc(=O)oc2c1CCC(C)(C)O` had an IC50 of over 100 µM. `CC(C)CCc1c(O)ccc2ccc(=O)oc12` yielded an IC50 of 40 µM. `CC(C)CCc1cccc2ccc(=O)oc12`: the half-maximal inhibitory concentration (IC50) stood at 60 µM. As for `COc1ccc2ccc(=O)oc2c1CC(O)C(C)(C)O` (configuration not stated), the half-inhibitory concentration (IC50) is over 100 µM.

The subject of a further experiment is MM46. Put plainly: Compound was tested for its cytotoxicity against MM46 cells. The format is functional, cell-based. The note with it: Mus musculus.
As for `COc1ccc2ccc(=O)oc2c1CC=C(C)C` [OSTHOLE], it took 8.6 µg/mL (≈ 35.2 µM) to reach half-maximal inhibition (IC50).

Broadly, the IC50 is the concentration that gives 50% inhibition. Higher therefore signals weaker potency in that assay.
